Results from PubChem BioAssay AID1963853 (Molecular Pharmacology Branch, DTP, NCI, 2024).

System: 266295-075-R-J1-PDC spheroid viability
Test: Anticancer human tumor 266295-075-R-J1-PDC patient-derived head and neck squamous carcinoma cell line growth inhibition [POLQ]
Details: spheroids with HUVEC and MSC; for IC50: curve of first compound; for viability, T/C: stronger effect = lower value
In short: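 Complex spheroid viability model combining PDC tumour cells with endothelial (HUVEC) and MSC stromal cells. Novobiocin, ART-558 or RP6685 were tested singly and in combination with standard and investigational anticancer drugs. Each was titrated in half-log steps from near clinical Cmax, or from 10 microM where Cmax was unknown.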

[1] = second compound 0.0316 µM, first compound 0.0316 µM
[2] = second compound 0.0316 µM, first compound 0.1 µM
[3] = second compound 0.0316 µM, first compound 0.316 µM
[4] = second compound 0.0316 µM, first compound 1 µM
[5] = second compound 0.0316 µM, first compound 3.16 µM
[6] = second compound 0.0316 µM, first compound 10 µM
[7] = second compound 0.1 µM, first compound 0.0316 µM
[8] = second compound 0.1 µM, first compound 0.1 µM
[9] = second compound 0.1 µM, first compound 0.316 µM
[10] = second compound 0.1 µM, first compound 1 µM
[11] = second compound 0.1 µM, first compound 3.16 µM
[12] = second compound 0.1 µM, first compound 10 µM
[13] = second compound 0.316 µM, first compound 0.0316 µM
[14] = second compound 0.316 µM, first compound 0.1 µM
[15] = second compound 0.316 µM, first compound 0.316 µM
[16] = second compound 0.316 µM, first compound 1 µM
[17] = second compound 0.316 µM, first compound 3.16 µM
[18] = second compound 0.316 µM, first compound 10 µM
[19] = second compound 1 µM, first compound 0.0316 µM
[20] = second compound 1 µM, first compound 0.1 µM
[21] = second compound 1 µM, first compound 0.316 µM
[22] = second compound 1 µM, first compound 1 µM
[23] = second compound 1 µM, first compound 3.16 µM
[24] = second compound 1 µM, first compound 10 µM
[25] = second compound 3.16 µM, first compound 0.0316 µM
[26] = second compound 3.16 µM, first compound 0.1 µM
[27] = second compound 3.16 µM, first compound 0.316 µM
[28] = second compound 3.16 µM, first compound 1 µM
[29] = second compound 3.16 µM, first compound 3.16 µM
[30] = second compound 3.16 µM, first compound 10 µM
[31] = second compound 10 µM, first compound 0.0316 µM
[32] = second compound 10 µM, first compound 0.1 µM
[33] = second compound 10 µM, first compound 0.316 µM
[34] = second compound 10 µM, first compound 1 µM
[35] = second compound 10 µM, first compound 3.16 µM
[36] = second compound 10 µM, first compound 10 µM
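Further: spheroids exposed to compounds for seven days before readout.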

CC1COCCN1c1cc(C2(S(C)(=N)=O)CC2)nc(-c2ccnc3[nH]ccc23)n1 (stereo unspecified) + Cc1cccc(N(C)C(=O)C2C(O)CCN2c2nc(C)cc(C(F)(F)F)c2C#N)c1
IC50 (second compound 0.0316 µM): > 10 µM | IC50 (second compound 0.1 µM): > 10 µM | IC50 (second compound 0.316 µM): > 10 µM | IC50 (second compound 1 µM): 9.31 µM | IC50 (second compound 3.16 µM): > 10 µM | IC50 (second compound 10 µM): > 10 µM | viability, T/C [1]: 101% | viability, T/C [2]: 83.2% | viability, T/C [3]: 87% | viability, T/C [4]: 79.8% | viability, T/C [5]: 81.3% | viability, T/C [6]: 57% | viability, T/C [7]: 95.2% | viability, T/C [8]: 83.5% | viability, T/C [9]: 79.3% | viability, T/C [10]: 86.8% | viability, T/C [11]: 72.1% | viability, T/C [12]: 55.1% | viability, T/C [13]: 89.8% | viability, T/C [14]: 98.6% | viability, T/C [15]: 111% | viability, T/C [16]: 81.4% | viability, T/C [17]: 75.8% | viability, T/C [18]: 56.7% | viability, T/C [19]: 94.4% | viability, T/C [20]: 100% | viability, T/C [21]: 96.8% | viability, T/C [22]: 82.5% | viability, T/C [23]: 69.8% | viability, T/C [24]: 48.5% | viability, T/C [25]: 103% | viability, T/C [26]: 93.6% | viability, T/C [27]: 81.4% | viability, T/C [28]: 89.3% | viability, T/C [29]: 72.5% | viability, T/C [30]: 55.2% | viability, T/C [31]: 92.8% | viability, T/C [32]: 98.1% | viability, T/C [33]: 97.1% | viability, T/C [34]: 94.3% | viability, T/C [35]: 74.2% | viability, T/C [36]: 56.2%

CCCS(=O)(=O)Nc1ccc(F)c(C(=O)c2c[nH]c3ncc(-c4ccc(Cl)cc4)cc23)c1F + Cc1cccc(N(C)C(=O)C2C(O)CCN2c2nc(C)cc(C(F)(F)F)c2C#N)c1
IC50 (second compound 0.0316 µM): > 10 µM | IC50 (second compound 0.1 µM): > 10 µM | IC50 (second compound 0.316 µM): > 10 µM | IC50 (second compound 1 µM): > 10 µM | IC50 (second compound 3.16 µM): > 10 µM | IC50 (second compound 10 µM): > 10 µM | viability, T/C [1]: 108% | viability, T/C [2]: 97.7% | viability, T/C [3]: 122% | viability, T/C [4]: 161% | viability, T/C [5]: 150% | viability, T/C [6]: 126% | viability, T/C [7]: 127% | viability, T/C [8]: 81.3% | viability, T/C [9]: 92.8% | viability, T/C [10]: 126% | viability, T/C [11]: 187% | viability, T/C [12]: 142% | viability, T/C [13]: 95.5% | viability, T/C [14]: 93% | viability, T/C [15]: 98.1% | viability, T/C [16]: 134% | viability, T/C [17]: 171% | viability, T/C [18]: 139% | viability, T/C [19]: 118% | viability, T/C [20]: 76.5% | viability, T/C [21]: 95.5% | viability, T/C [22]: 132% | viability, T/C [23]: 158% | viability, T/C [24]: 142% | viability, T/C [25]: 106% | viability, T/C [26]: 100% | viability, T/C [27]: 96.6% | viability, T/C [28]: 111% | viability, T/C [29]: 155% | viability, T/C [30]: 132% | viability, T/C [31]: 96.3% | viability, T/C [32]: 137% | viability, T/C [33]: 113% | viability, T/C [34]: 111% | viability, T/C [35]: 187% | viability, T/C [36]: 134%

Cn1ncnc1[C@H]1c2n[nH]c(=O)c3cc(F)cc(c23)N[C@@H]1c1ccc(F)cc1 + Cc1cccc(N(C)C(=O)C2C(O)CCN2c2nc(C)cc(C(F)(F)F)c2C#N)c1
IC50 (second compound 0.0316 µM): > 0.1 µM | IC50 (second compound 0.1 µM): > 0.1 µM | IC50 (second compound 0.316 µM): > 0.1 µM | IC50 (second compound 1 µM): > 0.1 µM | IC50 (second compound 3.16 µM): > 0.1 µM | IC50 (second compound 10 µM): > 0.1 µM | viability, T/C (second compound 0.0316 µM, first compound 0.000316 µM): 88.2% | viability, T/C (second compound 0.0316 µM, first compound 0.001 µM): 93.7% | viability, T/C (second compound 0.0316 µM, first compound 0.00316 µM): 84.3% | viability, T/C (second compound 0.0316 µM, first compound 0.01 µM): 109% | viability, T/C [1]: 100% | viability, T/C [2]: 96.5% | viability, T/C (second compound 0.1 µM, first compound 0.000316 µM): 99.4% | viability, T/C (second compound 0.1 µM, first compound 0.001 µM): 104% | viability, T/C (second compound 0.1 µM, first compound 0.00316 µM): 85.4% | viability, T/C (second compound 0.1 µM, first compound 0.01 µM): 115% | viability, T/C [7]: 90% | viability, T/C [8]: 87.9% | viability, T/C (second compound 0.316 µM, first compound 0.000316 µM): 108% | viability, T/C (second compound 0.316 µM, first compound 0.001 µM): 99.2% | viability, T/C (second compound 0.316 µM, first compound 0.00316 µM): 99.1% | viability, T/C (second compound 0.316 µM, first compound 0.01 µM): 104% | viability, T/C [13]: 95.7% | viability, T/C [14]: 99.7% | viability, T/C (second compound 1 µM, first compound 0.000316 µM): 103% | viability, T/C (second compound 1 µM, first compound 0.001 µM): 122% | viability, T/C (second compound 1 µM, first compound 0.00316 µM): 89% | viability, T/C (second compound 1 µM, first compound 0.01 µM): 97.1% | viability, T/C [19]: 113% | viability, T/C [20]: 75.8% | viability, T/C (second compound 3.16 µM, first compound 0.000316 µM): 94.1% | viability, T/C (second compound 3.16 µM, first compound 0.001 µM): 96.7% | viability, T/C (second compound 3.16 µM, first compound 0.00316 µM): 85.2% | viability, T/C (second compound 3.16 µM, first compound 0.01 µM): 118% | viability, T/C [25]: 104% | viability, T/C [26]: 104% | viability, T/C (second compound 10 µM, first compound 0.000316 µM): 119% | viability, T/C (second compound 10 µM, first compound 0.001 µM): 104% | viability, T/C (second compound 10 µM, first compound 0.00316 µM): 101% | viability, T/C (second compound 10 µM, first compound 0.01 µM): 105% | viability, T/C [31]: 109% | viability, T/C [32]: 114%
